The target in test [1] is T1, TX14–GFP (Arabidopsis thaliana, UniProt F4ISS7).
T1 construct: gene At2g32140; residues 1-351, GFP-tagged, pET-MBP-mGFP vector, E. coli BL21(DE3)
T1 sequence (F4ISS7 1-351): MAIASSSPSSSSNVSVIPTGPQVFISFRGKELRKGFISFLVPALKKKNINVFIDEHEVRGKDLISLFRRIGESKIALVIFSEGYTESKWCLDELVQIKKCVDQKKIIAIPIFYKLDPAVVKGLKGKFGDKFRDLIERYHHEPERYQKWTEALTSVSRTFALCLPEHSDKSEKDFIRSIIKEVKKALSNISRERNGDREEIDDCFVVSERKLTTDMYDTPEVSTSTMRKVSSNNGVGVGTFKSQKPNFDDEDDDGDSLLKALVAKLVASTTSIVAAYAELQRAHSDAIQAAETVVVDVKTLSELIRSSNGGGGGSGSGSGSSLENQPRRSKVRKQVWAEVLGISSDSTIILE
Kind of test: ATP-induced phase separation, confocal microscopy. The settings on record: 10 uM protein, 25 °C, 30 min; indirect read-out of binding.

The target of test [2] is T2, RBA1–GFP (Arabidopsis thaliana, UniProt F4HT77).
T2 construct: residues 1-191, GFP-tagged, pET-MBP-mGFP vector, E. coli BL21(DE3)
T2 sequence (F4HT77 1-191): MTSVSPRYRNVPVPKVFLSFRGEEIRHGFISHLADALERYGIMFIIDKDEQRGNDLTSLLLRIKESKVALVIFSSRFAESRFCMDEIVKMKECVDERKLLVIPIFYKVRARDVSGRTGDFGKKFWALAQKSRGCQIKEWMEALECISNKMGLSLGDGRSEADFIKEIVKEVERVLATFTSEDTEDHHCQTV
Put plainly: ATP-induced phase separation, confocal microscopy. The settings on record: 10 uM protein, 25 °C, 30 min; indirect read-out of binding.

The target of test [3] is T3, RPP1-TIR–GFP (RPP1-TIR) (Arabidopsis thaliana, UniProt Q9ZSN5).
T3 construct: TIR domain residues 1-254, GFP-tagged, pET-MBP-mGFP vector, E. coli BL21(DE3); an untagged 60-254 form (GST cut, Sf21) was also made
T3 sequence (Q9ZSN5 1-254): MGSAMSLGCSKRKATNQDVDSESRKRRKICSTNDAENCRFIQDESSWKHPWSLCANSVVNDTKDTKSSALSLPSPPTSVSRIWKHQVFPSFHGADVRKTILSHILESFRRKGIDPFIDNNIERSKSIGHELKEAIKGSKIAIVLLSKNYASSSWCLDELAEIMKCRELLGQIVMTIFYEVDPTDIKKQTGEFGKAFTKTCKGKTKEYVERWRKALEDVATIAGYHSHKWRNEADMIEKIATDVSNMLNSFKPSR
Kind of test: ATP-induced phase separation, confocal microscopy and turbidity. The settings on record: 1 mM ATP, 25 uM protein, 5% PEG 3,350, pH 8.0, 25 °C, 30 min; indirect read-out of binding.

Test [4] deals with T1, TX14–GFP. Kind of test: NADase assay, HPLC at […] nm; NAD+-induced phase separation by confocal microscopy. It is filed as biochemical. The settings on record: 100 uM NAD+, 10 mM MgCl2, pH 8.0, 25 °C, 16 h; condensates: 10 uM protein, NAD+ 0.2 mM.
For test [5], the target named is T4, TX14–GFP (Arabidopsis thaliana, UniProt F4ISS7, S38D).
T4 construct: gene At2g32140; residues 1-351, GFP-tagged, pET-MBP-mGFP vector, E. coli BL21(DE3)
T4 sequence (F4ISS7 1-351 S38D): T1 sequence (F4ISS7 1-351) with S38D
Put plainly: NADase assay, HPLC at […] nm. It is filed as biochemical. The settings on record: 100 uM NAD+, 10 mM MgCl2, pH 8.0, 25 °C, 16 h; 40 uM protein.

In test [6] the target is T5, TX14–GFP (Arabidopsis thaliana, UniProt F4ISS7, E57A/V58A/R59A/G60A/K61A/D62A).
T5 construct: gene At2g32140; residues 1-351, GFP-tagged, pET-MBP-mGFP vector, E. coli BL21(DE3)
T5 sequence (F4ISS7 1-351 E57A/V58A/R59A/G60A/K61A/D62A): T1 sequence (F4ISS7 1-351) with E57A, V58A, R59A, G60A, K61A, D62A
Put plainly: NADase assay, HPLC at […] nm. In kind it is biochemical. Particulars: 100 uM NAD+, 10 mM MgCl2, pH 8.0, 25 °C, 16 h.

Test [7] concerns the target T2, RBA1–GFP. Kind of test: NADase assay, HPLC at […] nm; NAD+-induced phase separation by confocal microscopy. In kind it is biochemical. The settings on record: 100 uM NAD+, 10 mM MgCl2, pH 8.0, 25 °C, 16 h; condensates: 10 uM protein, NAD+ 0.2 mM.
Test [8] deals with T3, RPP1-TIR–GFP (RPP1-TIR). The test is described as above. It is filed as biochemical. The settings on record: 100 uM NAD+, 10 mM MgCl2, pH 8.0, 25 °C, 16 h; droplets: 1 mM NAD+, 25 uM protein, 5% PEG 3,350.

Changes are numbered by the printed parent chain.

Turning to `Nc1ncnc2c1ncn2[C@@H]1O[C@H](COP(=O)(O)OP(=O)(O)OP(=O)(O)O)[C@@H](O)[C@H]1O` [ATP], the “ATP-induced phase separation, confocal microscopy” value on TX14–GFP [1] is “ATP and NAD^+/ATP induced phase separation of the TIR domain protein RBA1 and TX14”; at RBA1–GFP [2], “ATP and NAD^+/ATP induced phase separation of the TIR domain protein RBA1 and TX14”. For the same compound, the “ATP-induced phase separation, confocal microscopy and turbidity” value on RPP1-TIR–GFP (RPP1-TIR) [3] is “ATP induced phase separation of the RPP1-TIR–GFP protein”.
For the compound `NC(=O)c1ccc[n+]([C@@H]2O[C@H](COP(=O)(O)OP(=O)(O)OC[C@H]3O[C@@H](n4cnc5c(N)ncnc54)[C@H](O)[C@@H]3O)[C@@H](O)[C@H]2O)c1` [NAD^+], the “NADase assay, HPLC at 260 nm; NAD+-induced phase separation by confocal microsco” value was “wild-type RPP1-TIR, RBA1 and TX14 proteins nearly completely consumed the NAD^+ substrate” on TX14–GFP [4]; “wild-type RPP1-TIR, RBA1 and TX14 proteins nearly completely consumed the NAD^+ substrate” at RBA1–GFP [7]; “wild-type RPP1-TIR, RBA1 and TX14 proteins nearly completely consumed the NAD^+ substrate” on RPP1-TIR–GFP (RPP1-TIR) [8]. The results for the “relative NADase activity” value on TX14–GFP [5] and at TX14–GFP [6] were “the mutations of the AE interface impaired the NADase activity of these TIR domain proteins” and “NAD^+-hydrolysing activity was significantly reduced in the corresponding BB-loop mutant proteins”, respectively.

These data come from article PMC10972746, “Substrate-induced condensation activates plant TIR domain proteins” (Nature, 2024).
